Patent US8952024B2, “Herbicidal pyrimidone derivatives” (E I du Pont de Nemours and Company, priority 2009, dated 2015)

Tests used:
Type in all cases: in vivo
[1] = system: giant foxtail (Setaria faberii); experiment: Test A pre-/postemergence plant response
Source text: (§1) Seeds of barnyardgrass (Echinochloa crus-galli), large crabgrass (Digitaria sanguinalis), giant foxtail (Setaria faberii), morningglory (Ipomoea spp.), pigweed (Amaranthus retroflexus), velvetleaf (Abutilon theophrasti), wheat (Triticum aestivum) and corn (Zea mays) were planted into a blend of loam soil and sand and treated preemergence with a directed soil spray using test chemicals formulated in a non-phytotoxic solvent mixture which included a surfactant. At the same time these species were also treated with postemergence applications of test compounds formulated in the same manner.
(§2) Plants ranged in height from two to ten cm and were in the one- to two-leaf stage for the postemergence treatment. Treated plants and untreated controls were maintained in a greenhouse for approximately ten days, after which time all treated plants were compared to untreated controls and visually evaluated for injury. Plant response ratings, summarized in Table A, are based on a 0 to 100 scale where 0 is no effect and 100 is complete control. A dash (-) response means no test result.

[2] = system: large crabgrass (Digitaria sanguinalis); experiment: Test A pre-/postemergence plant response
Source text: as §1, §2

[3] = system: morningglory (Ipomoea spp.); experiment: Test A pre-/postemergence plant response
Source text: as §1, §2

[4] = system: velvetleaf (Abutilon theophrasti); experiment: Test A pre-/postemergence plant response
Source text: as §1, §2

[5] = system: pigweed (Amaranthus retroflexus); experiment: Test A pre-/postemergence plant response
Source text: as §1, §2

corn (Zea mays) = experiment: Test A pre-/postemergence plant response
Source text: as §1, §2

[6] = system: wheat (Triticum aestivum); experiment: Test A pre-/postemergence plant response
Source text: as §1, §2

[7] = system: barnyardgrass (Echinochloa crus-galli); experiment: Test A pre-/postemergence plant response
Source text: as §1, §2

[8] = system: ducksalad (Heteranthera limosa); experiment: Test B flooded paddy test; details: for Plant response rating, Flood, Ducksalad: 250 g ai/ha, flooded paddy test, visual rating on 0 to 100 scale (0 no effect, 100 complete control) after 13 to 15 days; for Plant response rating, Ducksalad: Flood (flooded paddy test), 13 to 15 days
Outline: (§3)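 Visual scores run from 0 (no effect) to 100 (complete control), assigned by comparison with controls 13 to 15 days after treatment. Test compounds went straight into water standing 3 cm above the soil, around plants at the 2-leaf stage kept in a greenhouse.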

rice (Oryza sativa) = experiment: Test B flooded paddy test; details: for Plant response rating, Flood, Rice: 250 g ai/ha, flooded paddy test, visual rating on 0 to 100 scale (0 no effect, 100 complete control) after 13 to 15 days; for Plant response rating, Rice: Flood (flooded paddy test), 13 to 15 days
Outline: as §3

[9] = system: barnyardgrass (Echinochloa crus-galli); experiment: Test B flooded paddy test; details: for Plant response rating, Flood, Barnyardgrass: 250 g ai/ha, flooded paddy test, visual rating on 0 to 100 scale (0 no effect, 100 complete control) after 13 to 15 days; for Plant response rating, Barnyardgrass: Flood (flooded paddy test), 13 to 15 days
Outline: as §3

[10] = system: umbrella sedge (Cyperus difformis); experiment: Test B flooded paddy test; details: for Plant response rating, Flood, Sedge, Umbrella: 250 g ai/ha, flooded paddy test, visual rating on 0 to 100 scale (0 no effect, 100 complete control) after 13 to 15 days; for Plant response rating, Sedge, Umbrella: Flood (flooded paddy test), 13 to 15 days
Outline: as §3

[11] = Postemergence, 125 g ai/ha, 0 to 100 scale where 0 is no effect and 100 is complete control
[12] = Postemergence, 500 g ai/ha, 0 to 100 scale, 0 = no effect, 100 = complete control, approx. ten days
[13] = Preemergence, 125 g ai/ha, 0 to 100 scale, 0 = no effect, 100 = complete control
[14] = Preemergence, 500 g ai/ha, visual injury, 0 to 100 scale (0 no effect, 100 complete control), approx. ten days
[15] = 62 g ai/ha, scale of 0 to 100 where 0 is no effect and 100 is complete control
[16] = 125 g ai/ha, scale 0 to 100, 0 is no effect, 100 is complete control
[17] = Flood, 31 g ai/ha, scale 0 to 100 (0 no effect, 100 complete control)

Cc1cc(-n2c(-c3cccc(Br)c3)ncc(C(=O)C3=C(O)CCCC3=O)c2=O)ccc1F [Compound 132]
0: Plant response rating, Foxtail, Giant [1, 11] | Plant response rating, Morningglory [3, 13] | Plant response rating, Corn (corn (Zea mays); [11]) | Plant response rating, Corn (corn (Zea mays); [13]) | Plant response rating, Wheat [6, 11] | Plant response rating, Wheat [6, 13] | Ducksalad plant response rating [8, 17] | Plant response rating, Flood, Rice (rice (Oryza sativa)) | Plant response rating, Rice (rice (Oryza sativa); [15]) | Plant response rating, Rice (rice (Oryza sativa); [16]) | Rice plant response rating (rice (Oryza sativa); [17]) | Plant response rating, Barnyardgrass [9, 15] | Plant response rating, Barnyardgrass [9, 16] | Barnyardgrass plant response rating [9, 17] | Plant response rating, Sedge, Umbrella [10, 15] | Sedge, Umbrella plant response rating [10, 17]
10: Plant response rating, Pigweed [5, 13] | Plant response rating, Wheat [6, 14] | Plant response rating, Barnyardgrass [7, 11] | Plant response rating, Barnyardgrass [7, 13]
60: Plant response rating, Pigweed [5, 11] | Plant response rating, Sedge, Umbrella [10, 16]
100: Plant response rating, Crabgrass, Large [2, 14] | Plant response rating, Velvetleaf [4, 11] | Plant response rating, Velvetleaf [4, 12] | Plant response rating, Barnyardgrass [7, 14] | Plant response rating, Flood, Ducksalad [8] | Plant response rating, Flood, Sedge, Umbrella [10]
20: Plant response rating, Foxtail, Giant [1, 13] | Plant response rating, Crabgrass, Large [2, 11] | Plant response rating, Corn (corn (Zea mays); [14])
80: Plant response rating, Velvetleaf [4, 14] | Plant response rating, Pigweed [5, 14] | Plant response rating, Ducksalad [8, 16]
50: Plant response rating, Crabgrass, Large [2, 13] | Plant response rating, Velvetleaf [4, 13] | Plant response rating, Ducksalad [8, 15]
90: Plant response rating, Foxtail, Giant [1, 14] | Plant response rating, Morningglory [3, 11] | Plant response rating, Morningglory [3, 12] | Plant response rating, Pigweed [5, 12] | Plant response rating, Barnyardgrass [7, 12]
30: Plant response rating, Morningglory [3, 14] | Plant response rating, Wheat [6, 12] | Plant response rating, Flood, Barnyardgrass [9]
70: Plant response rating, Foxtail, Giant [1, 12] | Plant response rating, Crabgrass, Large [2, 12]
40: Plant response rating, Corn (corn (Zea mays); [12])

CCCn1c(-c2ccc(Br)cc2)ncc(C(=O)C2=C(O)CCCC2=O)c1=O [Compound 134]
30: Plant response rating, Foxtail, Giant [1, 14] | Plant response rating, Crabgrass, Large [2, 14] | Plant response rating, Morningglory [3, 14]
40: Plant response rating, Foxtail, Giant [1, 11]
0: Plant response rating, Foxtail, Giant [1, 13] | Plant response rating, Crabgrass, Large [2, 13] | Plant response rating, Morningglory [3, 11] | Plant response rating, Pigweed [5, 13] | Plant response rating, Corn (corn (Zea mays); [11]) | Plant response rating, Corn (corn (Zea mays); [13]) | Plant response rating, Corn (corn (Zea mays); [14]) | Plant response rating, Wheat [6, 11] | Plant response rating, Wheat [6, 12] | Plant response rating, Wheat [6, 13] | Plant response rating, Wheat [6, 14] | Plant response rating, Barnyardgrass [7, 13] | Plant response rating, Flood, Ducksalad [8] | Plant response rating, Ducksalad [8, 15] | Plant response rating, Flood, Rice (rice (Oryza sativa)) | Plant response rating, Rice (rice (Oryza sativa); [15]) | Plant response rating, Flood, Barnyardgrass [9] | Plant response rating, Barnyardgrass [9, 15] | Plant response rating, Flood, Sedge, Umbrella [10] | Plant response rating, Sedge, Umbrella [10, 15]
50: Plant response rating, Crabgrass, Large [2, 11]
60: Plant response rating, Morningglory [3, 12] | Plant response rating, Pigweed [5, 14] | Plant response rating, Barnyardgrass [7, 12]
10: Plant response rating, Barnyardgrass [7, 11] | Plant response rating, Barnyardgrass [7, 14]
20: Plant response rating, Corn (corn (Zea mays); [12])
80: Plant response rating, Crabgrass, Large [2, 12] | Plant response rating, Pigweed [5, 12]
100: Plant response rating, Velvetleaf [4, 11] | Plant response rating, Velvetleaf [4, 12]
70: Plant response rating, Foxtail, Giant [1, 12] | Plant response rating, Velvetleaf [4, 13] | Plant response rating, Velvetleaf [4, 14] | Plant response rating, Pigweed [5, 11]
